Numbered stars: 1 amine (or outer) side, 2 acyl side, 3 side chain; on linkers, the order of the positions; unused ones are H or OH. Bridge positions count the residues as written; N and C are the ends. Square brackets hold non-standard residues; d marks the D form. Peptide text beside a SMILES is read from it. * marks the point of attachment. ξ: configuration not given here. Ala(morpholin-4-yl) = N[C@@H](CN1CCOCC1)C(=O)O; Phe(4-COOH) = N[C@@H](Cc1ccc(C(=O)O)cc1)C(=O)O; Bip = N[C@@H](Cc1ccc(-c2ccccc2)cc1)C(=O)O; Phe(3-Cl) = N[C@@H](Cc1cccc(Cl)c1)C(=O)O; Phe(4-CN) = N#Cc1ccc(C[C@H](N)C(=O)O)cc1; X37 = O=C([C@H](Cc1cn[nH]c1)N[*:1])[*:2]; Phe(2-CN) = N#Cc1ccccc1C[C@H](N)C(=O)O; Phe(3-F) = N[C@@H](Cc1cccc(F)c1)C(=O)O; Phe(3-Me) = Cc1cccc(C[C@H](N)C(=O)O)c1; Val(3-OH) = CC(C)(O)[C@H](N)C(=O)O; 4Pal = N[C@@H](Cc1ccncc1)C(=O)O; 3Thi = N[C@@H](Cc1ccsc1)C(=O)O; Cha = N[C@@H](CC1CCCCC1)C(=O)O; Cit = NC(=O)NCCC[C@H](N)C(=O)O; Thr(3ξ) = CC(O)[C@H](N)C(=O)O; ξCha = NC(CC1CCCCC1)C(=O)O; Carboxymethyl = O=C(O)C*; NMeA = CN[C@@H](C)C(=O)O; Orn = NCCC[C@H](N)C(=O)O; Dab = NCC[C@H](N)C(=O)O; Dap = NC[C@H](N)C(=O)O
The molecules below were run against T1, PE-labeled human PD-L1-Ig binding to Jurkat cell line over-expressing human PD-1 (Jurkat-PD-1) (Homo sapiens, UniProt Q15116) (assay: Jurkat-PD-1 Cell Binding High-Content Screening Assay (CBA): Method 1). Conditions: Jurkat-PD-1 cells, PE-labeled PD-L1-Ig; μM; read-out: CBA Method 1 μM.
T1 construct: expressed in transfected cells; host or cells: Jurkat
T1 sequence (Q15116 25-288): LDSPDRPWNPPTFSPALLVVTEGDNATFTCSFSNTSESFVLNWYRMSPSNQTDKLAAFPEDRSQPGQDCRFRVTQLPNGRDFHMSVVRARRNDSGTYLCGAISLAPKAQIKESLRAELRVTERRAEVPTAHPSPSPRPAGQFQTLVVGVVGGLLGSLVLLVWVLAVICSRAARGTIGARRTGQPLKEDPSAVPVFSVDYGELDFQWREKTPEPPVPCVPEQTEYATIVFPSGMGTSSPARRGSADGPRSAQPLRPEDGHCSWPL

Row | SMILES | IC50 [µM]
1 | Cc1cccc(C[C@@H]2NC(=O)[C@H](CC(=O)O)NC(=O)[C@H](Cc3ccc(OCC(=O)O)cc3)NC(=O)[C@H](C(C)O)NC(=O)CSC[C@@H](C(=O)N[C@@H](CO)C(=O)NCC(=O)N[C@@H](CO)C(N)=O)NC(=O)[C@H](C(C)O)NC(=O)[C@H](C(C)C)NC(=O)C(CC3CCCCC3)NC(=O)[C@H](CCN)NC(=O)[C@@H](CC(C)C)NC(=O)[C@H](C)N(C)C(=O)[C@H](Cc3ccc(OCC(=O)O)cc3)NC(=O)[C@H](Cc3ccc(-c4ccccc4)cc3)NC(=O)[C@H](Cc3ccc(C(=O)O)cc3)NC2=O)c1 (stereo partly drawn) [Example 5004] ({CH2CO}-[Thr(3ξ)]Y(Carboxymethyl)D[Phe(3-Me)][Phe(4-COOH)][Bip]Y(Carboxymethyl)[NMeA][dL][Dab][ξCha]V[Thr(3ξ)]CSGS-NH2; thioether N-14) | 0.03

Same assay, conditions: Jurkat-hPD-1 cells, PE-labeled PD-L1-Ig 20 nM final; read-out: Jurkat HPDL1 PD1 IC50 (uM) (Method 1)

Row | SMILES | IC50 [µM]
2 | Cc1cccc(C[C@@H]2NC(=O)[C@H](CC(=O)O)NC(=O)[C@H](Cc3ccc(OCC(=O)O)cc3)NC(=O)[C@H](CN3CCOCC3)NC(=O)CSC[C@@H](C(=O)N[C@@H](CCN)C(N)=O)NC(=O)[C@H](CCCN)NC(=O)[C@H](C(C)C)NC(=O)[C@H](Cc3cccc(F)c3)NC(=O)[C@H](CCN)NC(=O)[C@@H](CC(C)C)NC(=O)[C@H](C)N(C)C(=O)[C@H](CCC(N)=O)NC(=O)[C@H](Cc3ccc(-c4ccccc4)cc3)NC(=O)[C@H](Cc3ccc(C(=O)O)cc3)NC2=O)c1 [Example 2294] ({CH2CO}-[Ala(morpholin-4-yl)]Y(Carboxymethyl)D[Phe(3-Me)][Phe(4-COOH)][Bip]Q[NMeA][dL][Dab][Phe(3-F)]V[Orn]C[Dab]-NH2; thioether N-14) | 0.95
3 | CC(C)C[C@@H]1NC(=O)[C@H](CCN)NC(=O)[C@@H](CC(C)C)NC(=O)[C@H](C)N(C)C(=O)[C@H](C(C)C)NC(=O)[C@H](Cc2ccc(-c3ccccc3)cc2)NC(=O)[C@H](C(C)C)NC(=O)[C@H](Cc2c[nH]c3ccccc23)NC(=O)[C@H](CC(=O)O)NC(=O)[C@H](Cc2ccc(O)cc2)NC(=O)[C@H](CCN)NC(=O)CSC[C@@H](C(=O)N[C@@H](C)C(N)=O)NC(=O)[C@H]([C@@H](C)O)NC(=O)[C@H](C(C)C)NC1=O [Compound 1361] ({CH2CO}-[Dab]YDWV[Bip]V[NMeA][dL][Dab]LVTCA-NH2; thioether N-14) | 0.01
4 | CC(=O)NCCCC[C@@H]1NC(=O)[C@H](C(C)C)NC(=O)[C@H](CC2CCCCC2)NC(=O)[C@H](CCN)NC(=O)[C@@H](CC(C)C)NC(=O)[C@H](C)N(C)C(=O)[C@H](CCC(N)=O)NC(=O)[C@H](Cc2ccc(-c3ccccc3)cc2)NC(=O)[C@H](C(C)C)NC(=O)[C@H](Cc2c[nH]c3ccccc23)NC(=O)[C@H](CC(=O)O)NC(=O)[C@H](Cc2ccc(OCC(=O)O)cc2)NC(=O)[C@H](Cc2ccsc2)NC(=O)CSC[C@@H](C(=O)N[C@@H](CCN)C(N)=O)NC1=O [Compound 2127] ({CH2CO}-[3Thi]Y(Carboxymethyl)DWV[Bip]Q[NMeA][dL][Dab][Cha]VK(Ac)C[Dab]-NH2; thioether N-14) | 0.01
5 | Cc1cccc(C[C@@H]2NC(=O)[C@H](CC(=O)O)NC(=O)[C@H](Cc3ccc(OCC(=O)O)cc3)NC(=O)[C@H](Cc3ccncc3)NC(=O)CSC[C@@H](C(=O)N[C@@H](CCN)C(N)=O)NC(=O)[C@H](CO)NC(=O)[C@H](C(C)C)NC(=O)[C@H](CC3CCCCC3)NC(=O)[C@H](CCN)NC(=O)[C@@H](CC(C)C)NC(=O)[C@H](C)N(C)C(=O)[C@H](Cc3ccc(OCC(=O)O)cc3)NC(=O)[C@H](Cc3ccc(-c4ccccc4)cc3)NC(=O)[C@H](Cc3ccc(OCC(=O)O)cc3)NC2=O)c1 [Compound 1860] ({CH2CO}-[4Pal]Y(Carboxymethyl)D[Phe(3-Me)]Y(Carboxymethyl)[Bip]Y(Carboxymethyl)[NMeA][dL][Dab][Cha]VSC[Dab]-NH2; thioether N-14) | 0.01
6 | CC(C)C[C@@H]1NC(=O)[C@H](CCN)NC(=O)[C@@H](CC(C)C)NC(=O)[C@H](C)N(C)C(=O)[C@H](CCCNC(=N)N)NC(=O)[C@H](Cc2ccc(-c3ccccc3)cc2)NC(=O)[C@H](C(C)C)NC(=O)[C@H](Cc2c[nH]c3ccccc23)NC(=O)[C@H](CC(=O)O)NC(=O)[C@H](Cc2ccc(O)cc2)NC(=O)[C@H](Cc2cn[nH]c2)NC(=O)CSC[C@@H](C(=O)N[C@@H](C)C(N)=O)NC(=O)[C@H]([C@@H](C)O)NC(=O)[C@H](C(C)C)NC1=O [Compound 1159] ({CH2CO}-[X37]YDWV[Bip]R[NMeA][dL][Dab]LVTCA-NH2; thioether N-14) | 0.07
7 | CC(C)C[C@@H]1NC(=O)[C@H](CCN)NC(=O)[C@@H](CC(C)C)NC(=O)[C@H](C)N(C)C(=O)[C@H](C(C)C)NC(=O)[C@H](Cc2ccc(-c3ccccc3)cc2)NC(=O)[C@H](C(C)C)NC(=O)[C@H](Cc2c[nH]c3ccccc23)NC(=O)[C@H](CC(=O)O)NC(=O)[C@H](Cc2cccc(Cl)c2)NC(=O)[C@H](CN)NC(=O)CSC[C@@H](C(=O)N[C@@H](C)C(N)=O)NC(=O)[C@H]([C@@H](C)O)NC(=O)[C@H](C(C)C)NC1=O [Compound 1441] ({CH2CO}-[Dap][Phe(3-Cl)]DWV[Bip]V[NMeA][dL][Dab]LVTCA-NH2; thioether N-14) | 0.09
8 | CC(C)C[C@@H]1NC(=O)[C@H](CCN)NC(=O)[C@@H](CC(C)C)NC(=O)[C@H](C)N(C)C(=O)[C@H](CCCNC(=N)N)NC(=O)[C@H](Cc2ccc(-c3ccccc3)cc2)NC(=O)[C@H](C(C)C)NC(=O)[C@H](Cc2ccccc2C#N)NC(=O)[C@H](CC(=O)O)NC(=O)[C@H](Cc2ccc(O)cc2)NC(=O)[C@H](Cc2ccccc2)NC(=O)CSC[C@@H](C(=O)N[C@@H](C)C(N)=O)NC(=O)[C@H]([C@@H](C)O)NC(=O)[C@H](C(C)C)NC1=O [Compound 1204] ({CH2CO}-FYD[Phe(2-CN)]V[Bip]R[NMeA][dL][Dab]LVTCA-NH2; thioether N-14) | 0.33
9 | Cc1cccc(C[C@@H]2NC(=O)[C@H](CC(=O)O)NC(=O)[C@H](Cc3ccc(O)cc3)NC(=O)[C@H](CC(N)=O)NC(=O)CSC[C@@H](C(=O)N[C@@H](C)C(N)=O)NC(=O)[C@H]([C@@H](C)O)NC(=O)[C@H](C(C)C)NC(=O)[C@H](CC(C)C)NC(=O)[C@H](CCN)NC(=O)[C@@H](CC(C)C)NC(=O)[C@H](C)N(C)C(=O)[C@H](Cc3cnc[nH]3)NC(=O)[C@H](Cc3ccc(-c4ccccc4)cc3)NC(=O)[C@H](C(C)C)NC2=O)c1 [Compound 1376] ({CH2CO}-NYD[Phe(3-Me)]V[Bip]H[NMeA][dL][Dab]LVTCA-NH2; thioether N-14) | 0.02
10 | Cc1cccc(C[C@@H]2NC(=O)[C@H](CC(=O)O)NC(=O)[C@H](Cc3ccc(OCC(=O)O)cc3)NC(=O)[C@H](CN)NC(=O)CSC[C@@H](C(N)=O)NC(=O)[C@H](CO)NC(=O)[C@H](C(C)C)NC(=O)[C@H](CC(C)C)NC(=O)[C@H](CC(N)=O)NC(=O)[C@@H](CC(C)C)NC(=O)[C@H](C)N(C)C(=O)[C@H](CCCNC(N)=O)NC(=O)[C@H](Cc3ccc(-c4ccccc4)cc3)NC(=O)[C@H](CC(C)C)NC2=O)c1 [Compound 1644] ({CH2CO}-[Dap]Y(Carboxymethyl)D[Phe(3-Me)]L[Bip][Cit][NMeA][dL]NLVSC-NH2; thioether N-14) | 0.06
11 | Cc1cccc(C[C@@H]2NC(=O)[C@H](CC(=O)O)NC(=O)[C@H](Cc3ccc(C(=O)O)cc3)NC(=O)[C@H](Cc3ccsc3)NC(=O)CSC[C@@H](C(=O)N[C@@H](CCN)C(N)=O)NC(=O)[C@H](CO)NC(=O)[C@H](C(C)(C)O)NC(=O)[C@H](CC3CCCCC3)NC(=O)[C@H](CCN)NC(=O)[C@@H](CC(C)C)NC(=O)[C@H](C)N(C)C(=O)[C@H](Cc3ccc(OCC(=O)O)cc3)NC(=O)[C@H](Cc3ccc(-c4ccccc4)cc3)NC(=O)[C@H](Cc3ccc(OCC(=O)O)cc3)NC2=O)c1 [Compound 2133] ({CH2CO}-[3Thi][Phe(4-COOH)]D[Phe(3-Me)]Y(Carboxymethyl)[Bip]Y(Carboxymethyl)[NMeA][dL][Dab][Cha][Val(3-OH)]SC[Dab]-NH2; thioether N-14) | 0.01
12 | CC(C)C[C@@H]1NC(=O)[C@H](CCN)NC(=O)[C@@H](CC(C)C)NC(=O)[C@H](C)N(C)C(=O)[C@H](CCC(=O)O)NC(=O)[C@H](Cc2ccc(-c3ccccc3)cc2)NC(=O)[C@H](C(C)C)NC(=O)[C@H](Cc2c[nH]c3ccccc23)NC(=O)[C@H](CC(N)=O)NC(=O)[C@H](Cc2ccc(O)cc2)NC(=O)[C@H](Cc2ccncc2)NC(=O)CSC[C@@H](C(=O)N[C@@H](C)C(N)=O)NC(=O)[C@H](C(C)O)NC(=O)[C@H](C(C)C)NC1=O (stereo partly drawn) [Compound 2056] ({CH2CO}-[4Pal]YNWV[Bip]E[NMeA][dL][Dab]LV[Thr(3ξ)]CA-NH2; thioether N-14) | 0.04
13 | CC(C)C[C@@H]1NC(=O)[C@H](CCN)NC(=O)[C@@H](CC(C)C)NC(=O)[C@H](C)N(C)C(=O)[C@H](CCCNC(=N)N)NC(=O)[C@H](Cc2ccc(-c3ccccc3)cc2)NC(=O)[C@H](C(C)C)NC(=O)[C@H](Cc2c[nH]c3ccccc23)NC(=O)[C@H](CC(=O)O)NC(=O)[C@H](Cc2ccc(C#N)cc2)NC(=O)[C@H](Cc2ccncc2)NC(=O)CSC[C@@H](C(=O)N[C@@H](C)C(N)=O)NC(=O)[C@H]([C@@H](C)O)NC(=O)[C@H](C(C)C)NC1=O [Compound 1446] ({CH2CO}-[4Pal][Phe(4-CN)]DWV[Bip]R[NMeA][dL][Dab]LVTCA-NH2; thioether N-14) | 0.08
14 | CC(C)C[C@@H]1NC(=O)[C@H](CCN)NC(=O)[C@@H](CC(C)C)NC(=O)[C@H](C)N(C)C(=O)[C@H](CCCN)NC(=O)[C@H](Cc2ccc(-c3ccccc3)cc2)NC(=O)[C@H](C(C)C)NC(=O)[C@H](Cc2c[nH]c3ccccc23)NC(=O)[C@H](CC(=O)O)NC(=O)[C@H](Cc2ccc(O)cc2)NC(=O)[C@H](CN)NC(=O)CSC[C@@H](C(=O)N[C@@H](C)C(N)=O)NC(=O)[C@H](C(C)O)NC(=O)[C@H](C(C)C)NC1=O (stereo partly drawn) [Compound 2080] ({CH2CO}-[Dap]YDWV[Bip][Orn][NMeA][dL][Dab]LV[Thr(3ξ)]CA-NH2; thioether N-14) | 0.15

Source: US20240409585A1, “MACROCYCLIC IMMUNOMODULATORS” (priority 2021, published 2024)
